Tested on: 931267-113-T-J1-PDC KRAS spheroid with HUVEC/MSC, viability
Assay: Anticancer human tumor 931267-113-T-J1-PDC patient-derived colon adenocarcinoma cell line growth inhibition [KRAS2]
Conditions: for IC50: curve of first compound; for viability, T/C: stronger effect = lower value
Method in brief: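 Combination screen of spheroid viability in tumor-cell co-cultures with endothelial (HUVEC) and mesenchymal stem cell stroma. Each agent was tested in half-log dilutions, topping at clinical Cmax or at 10 microM without a known Cmax.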

[1] = second compound 0.1 µM, first compound 0.0316 µM
[2] = second compound 0.1 µM, first compound 0.1 µM
[3] = second compound 0.1 µM, first compound 0.316 µM
[4] = second compound 0.1 µM, first compound 1 µM
[5] = second compound 0.1 µM, first compound 3.16 µM
[6] = second compound 0.1 µM, first compound 10 µM
[7] = second compound 0.316 µM, first compound 0.0316 µM
[8] = second compound 0.316 µM, first compound 0.1 µM
[9] = second compound 0.316 µM, first compound 0.316 µM
[10] = second compound 0.316 µM, first compound 1 µM
[11] = second compound 0.316 µM, first compound 3.16 µM
[12] = second compound 0.316 µM, first compound 10 µM
[13] = second compound 1 µM, first compound 0.0316 µM
[14] = second compound 1 µM, first compound 0.1 µM
[15] = second compound 1 µM, first compound 0.316 µM
[16] = second compound 1 µM, first compound 1 µM
[17] = second compound 1 µM, first compound 3.16 µM
[18] = second compound 1 µM, first compound 10 µM
[19] = second compound 3.16 µM, first compound 0.0316 µM
[20] = second compound 3.16 µM, first compound 0.1 µM
[21] = second compound 3.16 µM, first compound 0.316 µM
[22] = second compound 3.16 µM, first compound 1 µM
[23] = second compound 3.16 µM, first compound 3.16 µM
[24] = second compound 3.16 µM, first compound 10 µM
[25] = second compound 10 µM, first compound 0.0316 µM
[26] = second compound 10 µM, first compound 0.1 µM
[27] = second compound 10 µM, first compound 0.316 µM
[28] = second compound 10 µM, first compound 1 µM
[29] = second compound 10 µM, first compound 3.16 µM
[30] = second compound 10 µM, first compound 10 µM
[31] = second compound 0.1 µM, first compound 0.000316 µM
[32] = second compound 0.1 µM, first compound 0.001 µM
[33] = second compound 0.1 µM, first compound 0.00316 µM
[34] = second compound 0.1 µM, first compound 0.01 µM
[35] = second compound 0.316 µM, first compound 0.000316 µM
[36] = second compound 0.316 µM, first compound 0.001 µM
[37] = second compound 0.316 µM, first compound 0.00316 µM
[38] = second compound 0.316 µM, first compound 0.01 µM
[39] = second compound 1 µM, first compound 0.000316 µM
[40] = second compound 1 µM, first compound 0.001 µM
[41] = second compound 1 µM, first compound 0.00316 µM
[42] = second compound 1 µM, first compound 0.01 µM
[43] = second compound 3.16 µM, first compound 0.000316 µM
[44] = second compound 3.16 µM, first compound 0.001 µM
[45] = second compound 3.16 µM, first compound 0.00316 µM
[46] = second compound 3.16 µM, first compound 0.01 µM
[47] = second compound 10 µM, first compound 0.000316 µM
[48] = second compound 10 µM, first compound 0.001 µM
[49] = second compound 10 µM, first compound 0.00316 µM
[50] = second compound 10 µM, first compound 0.01 µM
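Further: compound exposure lasted 7 days before the readout.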
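Wherever viability, T/C is given: 100% = DMSO vehicle control viability.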

CC(C)NCC(C(=O)N1CCN(c2ncnc3c2C(C)CC3O)CC1)c1ccc(Cl)cc1 (stereo not given) + CNCc1ccccc1-c1csc(C(C)Nc2nc(C)nc3cc(OC)c(OC)cc23)c1
IC50 (second compound 0.1 µM): 4.93 µM
IC50 (second compound 0.316 µM): 5.43 µM
IC50 (second compound 1 µM): 0.0905 µM
IC50 (second compound 3.16 µM): < 0.0316 µM
IC50 (second compound 10 µM): < 0.0316 µM
viability, T/C [1]: 96.3%
viability, T/C [2]: 90.4%
viability, T/C [3]: 79%
viability, T/C [4]: 68.4%
viability, T/C [5]: 59.3%
viability, T/C [6]: 38.6%
viability, T/C [7]: 76%
viability, T/C [8]: 70%
viability, T/C [9]: 63.6%
viability, T/C [10]: 54.6%
viability, T/C [11]: 69.1%
viability, T/C [12]: 31.1%
viability, T/C [13]: 60.7%
viability, T/C [14]: 47.9%
viability, T/C [15]: 38.9%
viability, T/C [16]: 33.4%
viability, T/C [17]: 21.6%
viability, T/C [18]: 19.2%
viability, T/C [19]: 0.1%
viability, T/C [20]: 0.18%
viability, T/C [21]: 0.09%
viability, T/C [22]: 0.1%
viability, T/C [23]: 0.14%
viability, T/C [24]: 0.16%
viability, T/C [25]: 0.17%
viability, T/C [26]: 0.15%
viability, T/C [27]: 0.15%
viability, T/C [28]: 0.14%
viability, T/C [29]: 0.25%
viability, T/C [30]: 1.22%

CC(C)n1nc(-c2ccc3oc(N)nc3c2)c2c(N)ncnc21 + CNCc1ccccc1-c1csc(C(C)Nc2nc(C)nc3cc(OC)c(OC)cc23)c1
IC50 (second compound 0.1 µM): 0.00618 µM
IC50 (second compound 0.316 µM): 0.00424 µM
IC50 (second compound 1 µM): 0.00101 µM
IC50 (second compound 3.16 µM): < 0.000316 µM
IC50 (second compound 10 µM): < 0.000316 µM
viability, T/C [31]: 87.3%
viability, T/C [32]: 87.7%
viability, T/C [33]: 68.4%
viability, T/C [34]: 37.2%
viability, T/C [1]: 24.2%
viability, T/C [2]: 27.2%
viability, T/C [35]: 85.6%
viability, T/C [36]: 67.8%
viability, T/C [37]: 55.5%
viability, T/C [38]: 38.7%
viability, T/C [7]: 27.7%
viability, T/C [8]: 19.8%
viability, T/C [39]: 51.3%
viability, T/C [40]: 57.2%
viability, T/C [41]: 33.2%
viability, T/C [42]: 24.1%
viability, T/C [13]: 12.7%
viability, T/C [14]: 5.59%
viability, T/C [43]: 0.15%
viability, T/C [44]: 0.12%
viability, T/C [45]: 0.09%
viability, T/C [46]: 0.08%
viability, T/C [19]: 0.07%
viability, T/C [20]: 0.21%
viability, T/C [47]: 0.19%
viability, T/C [48]: 0.81%
viability, T/C [49]: 0.23%
viability, T/C [50]: 0.29%
viability, T/C [25]: 0.33%
viability, T/C [26]: 0.4%

CC1(C)CCC(CN2CCN(c3ccc(C(=O)NS(=O)(=O)c4ccc(NCC5CCOCC5)c([N+](=O)[O-])c4)c(Oc4cnc5[nH]ccc5c4)c3)CC2)=C(c2ccc(Cl)cc2)C1 + CNCc1ccccc1-c1csc(C(C)Nc2nc(C)nc3cc(OC)c(OC)cc23)c1
IC50 (second compound 0.1 µM): 1.92 µM
IC50 (second compound 0.316 µM): 1.75 µM
IC50 (second compound 1 µM): < 0.0316 µM
IC50 (second compound 3.16 µM): < 0.0316 µM
IC50 (second compound 10 µM): < 0.0316 µM
viability, T/C [1]: 107%
viability, T/C [2]: 95.7%
viability, T/C [3]: 106%
viability, T/C [4]: 83.6%
viability, T/C [5]: 24%
viability, T/C [6]: 4.79%
viability, T/C [7]: 82.6%
viability, T/C [8]: 69.5%
viability, T/C [9]: 83.6%
viability, T/C [10]: 81.1%
viability, T/C [11]: 19.3%
viability, T/C [12]: 1.1%
viability, T/C [13]: 41.8%
viability, T/C [14]: 47.4%
viability, T/C [15]: 54%
viability, T/C [16]: 39.2%
viability, T/C [17]: 4.62%
viability, T/C [18]: 0.48%
viability, T/C [19]: 0.12%
viability, T/C [20]: 0.09%
viability, T/C [21]: 0.2%
viability, T/C [22]: 0.08%
viability, T/C [23]: 0.05%
viability, T/C [24]: 0.38%
viability, T/C [25]: 0.18%
viability, T/C [26]: 0.28%
viability, T/C [27]: 0.14%
viability, T/C [28]: 0.17%
viability, T/C [29]: 0.44%
viability, T/C [30]: 1.23%

CCN1CCN(Cc2ccc(Nc3ncc(F)c(-c4cc(F)c5nc(C)n(C(C)C)c5c4)n3)nc2)CC1 + CNCc1ccccc1-c1csc(C(C)Nc2nc(C)nc3cc(OC)c(OC)cc23)c1
IC50 (second compound 0.1 µM): 0.149 µM
IC50 (second compound 0.316 µM): 0.0701 µM
IC50 (second compound 1 µM): 0.00673 µM
IC50 (second compound 3.16 µM): < 0.00316 µM
IC50 (second compound 10 µM): < 0.00316 µM
viability, T/C [33]: 76.8%
viability, T/C [34]: 82.9%
viability, T/C [1]: 56.5%
viability, T/C [2]: 56.6%
viability, T/C [3]: 43.2%
viability, T/C [4]: 28.6%
viability, T/C [37]: 75.2%
viability, T/C [38]: 60.7%
viability, T/C [7]: 46.4%
viability, T/C [8]: 49%
viability, T/C [9]: 38.5%
viability, T/C [10]: 3.67%
viability, T/C [41]: 60.1%
viability, T/C [42]: 43.3%
viability, T/C [13]: 28.7%
viability, T/C [14]: 32.2%
viability, T/C [15]: 1.49%
viability, T/C [16]: 0.15%
viability, T/C [45]: 0.13%
viability, T/C [46]: 0.12%
viability, T/C [19]: 0.08%
viability, T/C [20]: 0.09%
viability, T/C [21]: 0.05%
viability, T/C [22]: 0.14%
viability, T/C [49]: 4.51%
viability, T/C [50]: 0.16%
viability, T/C [25]: 0.18%
viability, T/C [26]: 0.15%
viability, T/C [27]: 1.23%
viability, T/C [28]: 0.18%

COc1cc2nccc(Oc3ccc(NC(=O)C4(C(=O)Nc5ccc(F)cc5)CC4)cc3)c2cc1OC + CNCc1ccccc1-c1csc(C(C)Nc2nc(C)nc3cc(OC)c(OC)cc23)c1
IC50 (second compound 0.1 µM): 3.21 µM
IC50 (second compound 0.316 µM): 1.77 µM
IC50 (second compound 1 µM): < 0.0316 µM
IC50 (second compound 3.16 µM): < 0.0316 µM
IC50 (second compound 10 µM): < 0.0316 µM
viability, T/C [1]: 86.3%
viability, T/C [2]: 93.1%
viability, T/C [3]: 107%
viability, T/C [4]: 91%
viability, T/C [5]: 50.1%
viability, T/C [6]: 48.1%
viability, T/C [7]: 85.5%
viability, T/C [8]: 86.8%
viability, T/C [9]: 81.9%
viability, T/C [10]: 72.3%
viability, T/C [11]: 27.2%
viability, T/C [12]: 21.9%
viability, T/C [13]: 45.3%
viability, T/C [14]: 52.9%
viability, T/C [15]: 39.5%
viability, T/C [16]: 25.4%
viability, T/C [17]: 0.22%
viability, T/C [18]: 1.76%
viability, T/C [19]: 0.08%
viability, T/C [20]: 0.19%
viability, T/C [21]: 0.35%
viability, T/C [22]: 0.07%
viability, T/C [23]: 0.04%
viability, T/C [24]: 0.2%
viability, T/C [25]: 0.14%
viability, T/C [26]: 0.17%
viability, T/C [27]: 0.13%
viability, T/C [28]: 0.12%
viability, T/C [29]: 0.13%
viability, T/C [30]: 0.21%

Cn1ncnc1[C@H]1c2n[nH]c(=O)c3cc(F)cc(c23)N[C@@H]1c1ccc(F)cc1 + CNCc1ccccc1-c1csc(C(C)Nc2nc(C)nc3cc(OC)c(OC)cc23)c1
IC50 (second compound 0.1 µM): > 0.1 µM
IC50 (second compound 0.316 µM): > 0.1 µM
IC50 (second compound 1 µM): < 0.000316 µM
IC50 (second compound 3.16 µM): < 0.000316 µM
IC50 (second compound 10 µM): < 0.000316 µM
viability, T/C [31]: 95.4%
viability, T/C [32]: 85.4%
viability, T/C [33]: 92.4%
viability, T/C [34]: 84%
viability, T/C [1]: 80.9%
viability, T/C [2]: 72.6%
viability, T/C [35]: 62.4%
viability, T/C [36]: 66.7%
viability, T/C [37]: 66.5%
viability, T/C [38]: 59.9%
viability, T/C [7]: 52.5%
viability, T/C [8]: 56.6%
viability, T/C [39]: 42.1%
viability, T/C [40]: 61.8%
viability, T/C [41]: 43.2%
viability, T/C [42]: 32.8%
viability, T/C [13]: 52.6%
viability, T/C [14]: 32.3%
viability, T/C [43]: 0.09%
viability, T/C [44]: 0.09%
viability, T/C [45]: 0.09%
viability, T/C [46]: 0.07%
viability, T/C [19]: 0.1%
viability, T/C [20]: 0.19%
viability, T/C [47]: 0.14%
viability, T/C [48]: 0.13%
viability, T/C [49]: 0.13%
viability, T/C [50]: 0.14%
viability, T/C [25]: 0.16%
viability, T/C [26]: 0.98%
